According to US20260200928A1, “THERAPEUTIC COMPOUNDS” (Sanofi, priority 2022, published 2026):

Molecular target: T1, human IL-17A (Homo sapiens, UniProt Q16552)
T1 construct: purchased R&D Systems 7955-IL/CF
T1 sequence (Q16552 24-155): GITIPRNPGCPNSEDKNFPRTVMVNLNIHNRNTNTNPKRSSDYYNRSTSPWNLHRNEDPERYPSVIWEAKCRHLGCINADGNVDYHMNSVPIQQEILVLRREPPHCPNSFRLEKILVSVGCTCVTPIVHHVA
Assay: IL-17A AlphaLISA competition assay (block of IL-17A binding to its receptor IL-17RA)
Conditions: mean IC50 (n≥2), block of IL-17A binding to IL-17RA
Method: The ability of the compounds to block binding of IL-17A to its receptor, IL-17RA, was analysed in a competition assay using AlphaLISA technology (Perkin Elmer). The assay is a bead based AlphaLISA where the IL-17RA is captured on the acceptor bead via an Fc tag and IL-17A is captured on the streptavidin donor bead via a biotinylated anti-IL17A antibody.
Assay buffer was prepared by adding 0.05% Tween-20 (v/v) and 0.1% BSA to Phosphate Buffered Saline (PBS). The assay was carried out in 384-well white low volume plates (Perkin Elmer #6008359). 10 μL of a 7.5 nM stock of human recombinant IL-17A (R&D Systems 7955-IL/CF) diluted in assay buffer was dispensed into the assay plate and compounds or DMSO vehicle control were added in a volume of 75 nL using an acoustic dispenser (Beckman). The compounds were pre-incubated with the IL-17A for 30 min at room temperature prior to addition of 5 μL of a 5 nM stock of human recombinant IL-17RA/Fc chimera (R&D Systems 177-IR-100) diluted in assay buffer. The IL-17A was incubated with the receptor for a further 90 minutes at room temperature before addition of 5 μL of a mixture of anti-human Fc IgG acceptor beads (75 μg/mL, Perkin Elmer AL1030) and anti-IL-17A biotin conjugated antibody (5 nM, Abcam, #ab155575) in assay buffer. After a further 30 min incubation at room temperature, 5 μL of streptavidin donor beads (75 μg/mL, Perkin Elmer 6760002S) were added and the plate was incubated for 3 h in the dark.
The AlphaLisa signal was measured using the PheraSTAR plate reader (BMG). Data were analysed using GeneData Screener and fitted to a 4-parameter logistic equation. The IC50 values were calculated using the DMSO vehicle as the negative control and a high concentration (4 μM) of a reference IL-17A inhibitor as the positive control. All compounds were analysed at least in duplicate (n≥2).

**Q.** `CC(C)n1nccc1C(=O)N[C@H](C(=O)Nc1cc(C(NC(=O)CCC(F)(F)F)C2CC2)ccn1)C(C1CC1)C1CC1` (single isomer, unassigned) [Example 41] was tested. Which IC50 did it give?
**A.** Its IC50 is 282 nM.

**Q.** Which IC50 does the source give for `COC[C@H](c1ccnc(NC(=O)[C@H](COC(C)(C)C(F)(F)F)NC(=O)c2ccnn2C(C)C)c1)N1C[C@@H](C(F)(F)F)NC1=O` [Example 272, 1-isopropyl-N-((S)-1-((4-((S)-2-methoxy-1-((S)-2-oxo-4-(trifluoromethyl)imidazolidin-1-yl)ethyl)pyridin-2-yl)amino)-1-oxo-3-((1,1,1-trifluoro-2-methylpropan-2-yl)oxy)propan-2-yl)-1H-pyrazole-5-carboxamide] here?
**A.** The IC50 was 48 nM.

**Q.** For `COC[C@H](c1ccnc(NC(=O)[C@H](COC(C)(C)C(F)(F)F)NC(=O)c2nonc2C)c1)N1C[C@@H](C(F)(F)F)NC1=O` [Example 268, N-((S)-1-((4-((S)-2-methoxy-1-((S)-2-oxo-4-(trifluoromethyl)imidazolidin-1-yl)ethyl)pyridin-2-yl)amino)-1-oxo-3-((1,1,1-trifluoro-2-methylpropan-2-yl)oxy)propan-2-yl)-4-methyl-1,2,5-oxadiazole-3-carboxamide], which IC50 is on record?
**A.** The IC50 was 31 nM.

**Q.** How did the IC50 turn out when `CC(C)(C)OC(=O)N[C@H](C(=O)Nc1cc(C(NC(=O)CCC(F)(F)F)C2CC2)ccn1)[C@H]1CC[C@H](C)CC1` (single isomer, unassigned) [Example 73] was run?
**A.** The IC50 was 1010 nM.

**Q.** How did the IC50 turn out when `CC(C)n1ccnc1C(=O)N[C@H](C(=O)Nc1cc(C(NC(=O)CCC(F)(F)F)C2CC2)ccn1)C1CCC(F)(F)CC1` (stereo partly drawn) [Example 117, N-((1S)-2-((4-(cyclopropyl(4,4,4-trifluorobutanamido)methyl)pyridin-2-yl)amino)-1-(4,4-difluorocyclohexyl)-2-oxoethyl)-1-isopropyl-1H-imidazole-2-carboxamide] was run?
**A.** The IC50 was 723 nM.

**Q.** For `C[C@H]1CC[C@H]([C@H](NC(=O)c2nonc2C2CC2)C(=O)Nc2cc(CN3C[C@@H](C(F)(F)F)NC3=O)ccn2)CC1` [Example 2, 4-Cyclopropyl-N—((S)-1-((1r,4S)-4-methylcyclohexyl)-2-oxo-2-((4-(((S)-2-oxo-4-(trifluoromethyl)imidazolidin-1-yl)methyl)pyridin-2-yl)amino)ethyl)-1,2,5-oxadiazole-3-carboxamide], which IC50 is on record?
**A.** The IC50 was 25 nM.

**Q.** For `CC(C)(C)OC(=O)N[C@H](C(=O)Nc1cc(CN2C[C@@H](C(F)(F)F)NC2=O)ccn1)[C@H]1CC[C@H](C)CC1` [Example 1, Tert-butyl ((S)-1-((1r,4S)-4-methylcyclohexyl)-2-oxo-2-((4-(((S)-2-oxo-4-(trifluoro-methyl)imidazolidin-1-yl)methyl)pyridin-2-yl)amino)ethyl)carbamate], which IC50 is on record?
**A.** The IC50 was 148 nM.

**Q.** For `CCc1nonc1C(=O)N[C@H](C(=O)Nc1cc([C@@H](COC)N2CC(F)(F)CNC2=O)ccn1)C1CCC(F)(F)CC1` [Example 182, N-((S)-2-((4-((S)-1-(5,5-difluoro-2-oxotetrahydropyrimidin-1(2H)-yl)-2-methoxyethyl)pyridin-2-yl)amino)-1-(4,4-difluorocyclohexyl)-2-oxoethyl)-4-ethyl-1,2,5-oxadiazole-3-carboxamide], which IC50 is on record?
**A.** The IC50 was 19 nM.

**Q.** For `CC1CCC(C(NC(=O)c2ccnn2C(C)C)C(=O)Nc2cc(C(C)N3CC(C(F)(F)F)NC3=O)ccn2)CC1` [Example 241, 1-isopropyl-N-((S)-1-((1r,4S)-4-methylcyclohexyl)-2-oxo-2-((4-((R)-1-((S)-2-oxo-4-(trifluoromethyl)imidazolidin-1-yl)ethyl)pyridin-2-yl)amino)ethyl)-1H-pyrazole-5-carboxamide], which IC50 is on record?
**A.** Its IC50 is 29 nM.

**Q.** How did the IC50 turn out when `Cn1nccc1C(=O)NC(C(=O)Nc1cc(Cc2ccn(C)c(=O)c2)ccn1)C1CCC(F)(F)CC1` (stereo not drawn) [Example 54, N-(1-(4,4-difluorocyclohexyl)-2-((4-((1-methyl-2-oxo-1,2-dihydro-pyridin-4-yl)methyl)pyridin-2-yl)amino)-2-oxoethyl)-1-methyl-1H-pyrazole-5-carboxamide] was run?
**A.** Its IC50 is 4760 nM.

**Q.** With `COCC(c1ccnc(NC(=O)[C@@H](NC(=O)c2nonc2C2CC2)[C@H]2CC[C@H](C)CC2)c1)N1C[C@@H](C(F)(F)F)NC1=O` (single isomer, unassigned) [Example 58] as the compound, how does the IC50 read?
**A.** Its IC50 is 11 nM.

**Q.** `CCc1nocc1C(=O)N[C@H](C(=O)Nc1cc([C@@H](COC)N2C[C@@H](C(F)(F)F)NC2=O)ccn1)[C@H]1CCCC(F)(F)C1` (single isomer, unassigned) [Example 306] was tested. Which IC50 did it give?
**A.** Its IC50 is 47 nM.

**Q.** With `COCC(NC(=O)CCC(F)(F)F)c1ccnc(NC(=O)C(NC(=O)c2nonc2C2CC2)C2CCC(C)CC2)c1` [Example 243, 4-cyclopropyl-N-((1S)-2-((4-(2-methoxy-1-(4,4,4-trifluorobutanamido)ethyl)pyridin-2-yl)amino)-1-((1r,4S)-4-methylcyclohexyl)-2-oxoethyl)-1,2,5-oxadiazole-3-carboxamide] as the compound, how does the IC50 read?
**A.** The IC50 was 38 nM.

**Q.** `Cn1nccc1C(=O)N[C@H](C(=O)Nc1cc(CNC(=O)CCC(F)(F)F)ccn1)C(C1CC1)C1CC1` [Example 32, (S)—N-(1,1-dicyclopropyl-3-oxo-3-((4-((4,4,4-trifluorobutanamido)-methyl)pyridin-2-yl)amino)propan-2-yl)-1-methyl-1H-pyrazole-5-carboxamide] was tested. Which IC50 did it give?
**A.** The IC50 was 5600 nM.

**Q.** With `CCn1nccc1C(=O)N[C@H](C(=O)Nc1cc(C(COC)NC(=O)CCC(F)(F)F)ccn1)C1CCC(F)(F)CC1` (single isomer, unassigned) [Example 138] as the compound, how does the IC50 read?
**A.** The IC50 was 164 nM.

**Q.** With `[2H]C(c1ccnc(NC(=O)[C@@H](NC(=O)OC(C)(C)C)[C@H]2CC[C@H](C)CC2)c1)N1C[C@@H](C(F)(F)F)NC1=O` (stereo partly drawn) [Example 151, Tert-butyl ((1S)-1-((1r,4S)-4-methylcyclohexyl)-2-oxo-2-((4-(((S)-2-oxo-4-(trifluoromethyl)-imidazolidin-1-yl)methyl-d)pyridin-2-yl)amino)ethyl)carbamate] as the compound, how does the IC50 read?
**A.** The IC50 was 401 nM.

**Q.** With `COCC(c1ccnc(NC(=O)[C@@H](NC(=O)c2nonc2C2CC2)[C@H]2CC[C@H](C)CC2)c1)N1C[C@@H](C(F)(F)F)NC1=O` (single isomer, unassigned) [Example 59] as the compound, how does the IC50 read?
**A.** Its IC50 is 61 nM.

**Q.** How did the IC50 turn out when `COCC(c1ccnc(NC(=O)C(NC(=O)Cc2c(C)noc2C)C2CCC(C)CC2)c1)N1CC(C(F)(F)F)NC1=O` [Example 113, (2S)-2-(2-(3,5-dimethyl-isoxazol-4-yl)acetamido)-N-(4-(2-methoxy-1-((S)-2-oxo-4-(trifluoromethyl)-imidazolidin-1-yl)ethyl)-pyridin-2-yl)-2-((1r,4S)-4-methylcyclohexyl)-acetamide] was run?
**A.** The IC50 was 1000 nM.

**Q.** How did the IC50 turn out when `COCC(c1ccnc(NC(=O)C(NC(=O)C(F)(F)c2ccc(C)cc2)C2CCC(C)CC2)c1)N1CC(C(F)(F)F)NC1=O` (single isomer, unassigned) [Example 149] was run?
**A.** Its IC50 is 108 nM.

**Q.** Which IC50 does the source give for `COCC(c1ccnc(NC(=O)[C@@H](NC(=O)c2ccnn2C)[C@H]2CC[C@H](C)CC2)c1)N1C[C@@H](C(F)(F)F)NC1=O` (single isomer, unassigned) [Example 85] here?
**A.** Its IC50 is 12 nM.

**Q.** “4-Cyclopropyl-N—((S)-1-((1r,4S)-4-methylcyclohexyl)-2-oxo-2-((5-(((S)-2-oxo-4-(trifluoromethyl)imidazolidin-1-yl)methyl)pyridin-3-yl)amino)ethyl)-1,2,5-oxadiazole-3-carboxamide and 4-Cyclopropyl-N—((R)-1-((1r,4R)-4-methylcyclo-hexyl)-2-oxo-2-((5-(((S)-2-oxo-4-(trifluoromethyl)imidazolidin-1-yl)methyl)pyridin-3-yl)amino)ethyl)-1,2,5-oxadiazole-3-carboxamide [Example 84]” was tested. Which IC50 did it give?
**A.** The IC50 was 373 nM.

**Q.** For `C[C@@H]1CN(Cc2ccnc(NC(=O)[C@@H](NC(=O)c3ccnn3C)C(C3CC3)C3CC3)c2)C(=O)N1` [Example 33, N—((S)-1,1-dicyclopropyl-3-((4-(((R)-4-methyl-2-oxoimidazolidin-1-yl)methyl)pyridin-2-yl)amino)-3-oxopropan-2-yl)-1-methyl-1H-pyrazole-5-carboxamide], which IC50 is on record?
**A.** The IC50 was 1010 nM.

**Q.** `COC[C@H](c1ccnc(NC(=O)[C@@H](NC(=O)c2ccnn2C(C)C)[C@H]2CCCC(F)(F)C2)c1)N1C[C@@H](C(F)(F)F)NC1=O` (single isomer, unassigned) [Example 309] was tested. Which IC50 did it give?
**A.** Its IC50 is 98 nM.

**Q.** `CCc1cnoc1C(=O)N[C@H](C(=O)Nc1cc(C(CC(F)(F)F)NC(=O)CCC(F)(F)F)ccn1)C1CCC(F)(F)CC1` (stereo partly drawn) [Example 157, N-((1S)-1-(4,4-difluorocyclohexyl)-2-oxo-2-((4-(3,3,3-trifluoro-1-(4,4,4-trifluorobutanamido)propyl)pyridin-2-yl)amino)ethyl)-4-ethylisoxazole-5-carboxamide] was tested. Which IC50 did it give?
**A.** Its IC50 is 117 nM.
